In assay [1] the test system is superoxide dismutase (SOD1). Kind of assay: SOD1 expression in rat epidermis after sciatic nerve injury, Western immunoblotting. In kind it is in vivo. To be noted: 8-AG 5 mg/kg/day in drinking water. The procedure:
Animals. This study employed female Harlan Sprague Dawley (HSD) rats (3-4 mo; Envigo, Indianapolis, IN) and were divided into the following groups: 1) Control, 2) Sciatic nerve crush (day 0, sacrifice on day 6); 3) 8-aminoguanine (8-AG; 5 mg/kg/day in drinking water; beginning 2 weeks prior to nerve crush and continuing until sacrifice (day 6)). The dose of 8-AG is based on the work above and published experiments. Further, the water consumption/day was tracked. […] All tissues (hindpaw epidermis) were removed from isoflurane anesthetized rats and the tissue was used for various experimental approaches as described below. At the end of tissue removal, animals were sacrificed by thoracotomy. […]

Assay [2] deals with isolated mitochondria from spinal cord (L3-L5) homogenates. Kind of assay: Mitochondrial respiration (respiratory control ratio) in CYP-CIPN rat spinal cord. To be noted: oral 8-AG. It counts as in vivo. The procedure:
Animals. This study employed female Harlan Sprague Dawley (HSD) rats (3-4 mo; Envigo, Indianapolis, IN) and were divided into the following groups: 1) Control, 2) Cyclophosphamide (CYP, 75 mg/kg i.p. in saline vehicle; administered on days 0, 3 and 6); 3) 8-aminoguanine (8-AG; 5 mg/kg/day in drinking water; beginning 2 weeks prior to CYP and continuing until sacrifice (day 8)). The dose of 8-AG is based on our preliminary and published experiments. […] The investigation conforms to the Guide for the Care and Use of Laboratory Animals published by the US National Institutes of Health (NIH Publication No. 85-23, revised 1996). In addition, all tissues (dorsal root ganglion, spinal cord, peripheral nerves and hindpaw epidermis) were removed from isoflurane anesthetized rats and the tissue was used for various experimental approaches as described below. At the end of tissue removal, animals were sacrificed by thoracotomy.
Mitochondrial Respiration. Homogenates (peripheral nerve and/or spinal cord) were used to measure mitochondrial respiration. Mitochondria were isolated as described earlier with modifications. […] The respiratory control ratio (RCR), a measure of the “tightness of coupling” between electron transport and oxidative phosphorylation, was determined from ratio of state 3 to state 4 rates of respiration. […]

Entries after “also recorded” stand apart in the source; their conditions may differ.

Turning to `Nc1nc2[nH]c(N)nc2c(=O)[nH]1` [8-AG, 8-Aminoguanine], the “effect on sciatic nerve injury-induced decrease in SOD1 expression” value is listed as “restored to control values; also recorded: normalized” in assay [1] and “normalized” in assay [1] (listed as 8-Aminoguanine). In addition, in assay [2], the “effect on CYP-induced decrease in respiratory control ratio (RCR)” value is listed as “reversed to values similar to Control; also recorded: prevented”.
